From patent publication US20250297135A1, “CERIA AND HYDROXAMIC ACID CMP COMPOSITION” (ENTEGRIS, INC., priority 2024, published 2025)
Read-outs that look alike come from different tables or passages of the source.

Columns and labels:
[1] = pH 5.5
Procedure: (§1) To measure the aqueous solubility, a supersaturated solution of each hydroxamic acid compound was prepared in deionized water. The pH was adjusted to 5.5 using nitric acid and the supersaturated solution was stirred overnight. Excess solids were removed via filtration and the hydroxamic acid compound in solution was quantified using ^1H NMR with a t-BuOH standard.

[2] = Aqueous solubility from supersaturated solution, 1H NMR quantification; settings: deionized water, pH adjusted to 5.5 using nitric acid, stirred overnight, filtered
Procedure: as §1

Row | Aqueous Solubility [1] [%] | Aqueous Solubility [2] [%] | Structure (SMILES)
1 | 1.0 | – | O=C(NO)c1ccc(F)cc1 [4FBHA, 4-Fluorobenzohydroxamic acid]
2 | – | 0.5 | Cc1ccccc1C(=O)NO [4MeBHA, methylbenzo hydroxamic acid]
3 | 0.5 | – | COc1ccc(CCCCC(=O)NO)cc1 [4pAnisBuHA, 4-(p-anisyl) butyrohydroxamic acid]
